Laboratory results published in US9441012B2, “Fluorinated epoxyketone-based compounds and uses thereof as proteasome inhibitors” (FLUORINOV PHARMA INC., priority 2012, dated 2016).

Legend:
LP1 myeloma cells = test: Combination assays: viability of myeloma LP1 cells (MTS, combination index); format: cell-based, human
Experimental: To examine whether compounds of Formula I can be combined with other conventional and newer anti-multiple myeloma agents, such as dexamethasone and bortezomib, respectively, LP1 myeloma cells were treated for 72 hours with increasing concentrations of compounds of Formula I in combination with dexamethasone or bortezomib. After incubation, cell growth and viability was measured by the MTS assay. The combination index (CI) analysis, where a CI<1 indicates synergy between two drugs, a CI=1 indicates additivity, and a CI>1 indicates antagonism, was used to determine whether the cytotoxicity produced by the combinations with compounds of Formula I were synergistic, additive, or antagonistic.
The effects of combining these agents with a representative of compounds of Formula I i.e. the compound of Example 1 on the viability of myeloma LP1 cells in culture were assessed. LP1 cells were treated for 72 hours with increasing concentrations of the compound of Example 1 in combination with dexamethasone or bortezomib. After incubation, cell growth and viability was measured by the MTS assay.
The combination of the compound of Example 1 and bortezomib was synergistic with Combination Index values of 0.41, 0.46, and 0.88 at Fraction affected (Fa) levels of 0.39, 0.58, and 0.6, respectively (FIG. 2A).
The combination of the compound of Example 1 and dexamethasone was synergistic with Combination Index values of 0.41, 0.44, and 0.5 at Fraction affected levels of 0.43, 0.5, and 0.64, respectively (FIG. 2B).

[1] = system: normal mononuclear hematopoietic cells (CD138−); test: Viability of primary patient samples (Annexin V, anti-CD138, flow cytometry); format: cell-based; conditions: 24 hours
Experimental: Apoptosis was measured by staining cells treated with compounds of Formula I with annexin V-fluorescein isothiocyanate and propidium iodide (both from Biovision Research Products, Mountain View, Calif.) and flow cytometry according to manufacturer's instructions and as previously described [Blood. 2005, 105(10), 4043-4050]. Experiments were performed at least in duplicate and repeated at least twice (n=4-20 data points). Viable primary myeloma cells were identified by staining with phycoerythrin-conjugated mouse monoclonal anti-CD138 antibody (20 μL/[…] cells; Beckman Coulter, Brea, Calif.). The percentage of myeloma cells that were CD138 positive and annexin V negative after compounds of Formula (I) treatment compared with untreated samples was quantified as a marker of cell viability as previously described [Blood. 2007, 109(12), 5430-5438].
Effects of a representative of compounds of Formula I (the compound of Example 1) on the viability of primary malignant and normal hematopoietic cells isolated from patient samples was also studied. […] Viability of normal hematopoietic cells (CD138−) and myeloma cells (CD138+) were measured by flow cytometry with PE-labeled anti-CD138 and FITC-labeled Annexin V co-staining. […]

## Cc1ncc(C(=O)N[C@@H](COC(F)F)C(=O)N[C@@H](COC(F)F)C(=O)N[C@@H](Cc2ccccc2)C(=O)[C@@]2(C)CO2)s1 [Example 1, 2-methyl-thiazole-5-carboxylic acid ((S)-1-{(S)-1-[(S)-1-benzyl-2-((R)-2-methyloxiranyl)-2-oxo-ethylcarbamoyl]-2-difluoromethoxyethylcarbamoyl}-2-difluoromethoxyethyl)-amide]
LP1 myeloma cells; combination with bortezomib, Fraction affected 0.39, LP1, 72 hours
  Combination Index: 0.41
LP1 myeloma cells; combination with bortezomib, Fraction affected 0.58, LP1, 72 hours
  Combination Index: 0.46
LP1 myeloma cells; combination with bortezomib, Fraction affected 0.6, LP1, 72 hours
  Combination Index: 0.88
LP1 myeloma cells; combination with dexamethasone, Fraction affected 0.43, LP1, 72 hours
  Combination Index: 0.41
LP1 myeloma cells; combination with dexamethasone, Fraction affected 0.5, LP1, 72 hours
  Combination Index: 0.44
LP1 myeloma cells; combination with dexamethasone, Fraction affected 0.64, LP1, 72 hours
  Combination Index: 0.5
[1]
  LD50 normal mononuclear hematopoietic cells: > 2.5 µM
